From patent US20230079757A1, “METHODS AND MATERIALS FOR TREATING CANCER” (Mayo Foundation for Medical Education and Research, priority 2020, published 2023) come the findings set out here.

Residue numbers refer to the chain shown, from its start. l = locked nucleic acid (LNA); d = 2'-deoxy (DNA)

Data set [1] relates to TRAMP-C2 tumors. Put plainly: Growth and survival of TRAMP-C2 prostate tumors in syngeneic C57BL/6 mice treated intratumorally with Poly(I:C). The data set is classed as in vivo. From the text: (§1) FIGS. 13A-13H. FOXA1 overexpression confers cancer immuno- and chemo-therapy resistance in mice and patients. FIG. 13A) Schematic diagram of generation and Poly(I:C) treatment of TRAMP-C2 prostate tumors in syngeneic mice. FIG. 13B) Growth of TRAMP-C2-Vector and TRAMP-C2-FOXA1ΔαH3 tumors treated with or without Poly(I:C). FIG. 13C) Tumor-free survival of syngeneic mice bearing TRAMP-C2-Vector or TRAMP-C2-FOXA1ΔαH3 tumors administrated with or without Poly(I:C). Statistical significance was determined by Log-rank (Mantel-Cox) test. FIGS. 13D and 13E) PhenoGraph-defined cellular distribution and clustering, as defined by tSNE1 and tSNE2, colored by cellular phenotypes in TRAMP-C2-Vector and TRAMP-C2-FOXA1ΔαH3 tumors from mice at 16 days post vehicle or Poly(I:C) treatment (FIG. 13D). Data were derived from all normalized viable single cells, subjected to the PhenoGraph algorithm. Data in the bar graphs (FIG. 13E) are means ±s.d, n=3. […] Statistical significance was determined by unpaired two-tailed Student's t tests in FIGS. 13E, 13F and 13G. FIG. 13H) Progression-free survival of patients with FOXA1-expression low or high urothelial carcinoma treated with anti-PD1 immunotherapy. Statistical significance was determined by Log-rank (Mantel-Cox) test.
To directly explore the role of FOXA1 in inhibiting cancer immune response, stable murine prostate cancer TRAMP-C2 cell lines overexpressing FOXA1-WT, cancer-associated mutant FOXA1-R261G and DNA binding-deficient mutant FOXA1ΔαH3, were established. […]
TRAMP-C2-Vector or TRAMP-C2-FOXA1ΔαH3 cells (3×10^6) were injected subcutaneously into the right flank of 8-week old male C57BL/6 on day 0. Tumors were measured twice per week with calipers and the volume calculated (length×width×width×0.5). Poly I:C (2.5 mg/kg, 100 pl) purchased from Sigma-Aldrich (# P1530) or vehicle (PBS, 100 pl) was administered by intratumoral injection twice per week (five doses in total) and tumors were measured twice per week until the tumor volume reached the maximum allowed size ([…]). […]

In data set [2] the test system is TRAMP-C2 tumors. Put plainly: CyTOF analysis of immune cells in TRAMP-C2 tumors after Poly(I:C). Type of data set: in vivo, mice.
Source text: as §1
TRAMP-C2-Vector or TRAMP-C2-FOXA1ΔαH3 cells (3×10^6) were injected subcutaneously into the right flank of 8-week old male C57BL/6 on day 0. Tumors were measured twice per week with calipers and the volume calculated (length×width×width×0.5). Poly I:C (2.5 mg/kg, 100 pl) purchased from Sigma-Aldrich (# P1530) or vehicle (PBS, 100 pl) was administered by intratumoral injection twice per week (five doses in total) and tumors were measured twice per week until the tumor volume reached the maximum allowed size ([…]). For CyTOF and Immunofluorescence experiments, mice were euthanized at 48 hours post the last administration.
Single tumor cells were isolated using the Mouse Tumor Dissociation Kit (Miltenyi Biotec, # 130-096-730) following standard protocol. CyTOF staining panels are detailed in Table 3. […]

Data set [3] has as its system Foxa1 protein. Put plainly: Western blot analysis of Foxa1 protein in MyC-CaP cells after ASO transfection. Conditions: MyC-CaP murine prostate cancer cells, 48 hours after transfection, vs control ASO. Type of data set: cell-based. The procedure: (§2) FIGS. 19A-19B. FOXA1 ASOs sensitize prostate cancer to anti-PD-L1 immunotherapy in mice. (FIG. 19A) Western blot analysis of Foxal protein in MyC-CaP mouse prostate cancer cells at 48 hours after transfection with control ASO (Con ASO), Foxal gene specific ASO1, or Foxa1 gene specific ASO2. Erk2 was used as a loading control. (FIG. 19B) Growth of subcutaneous MyC-CaP prostate tumors in wild type intact FVB male mice. Mice were treated with anti-PD-L1 or non-specific IgG (10 mg/kg) in combination with control ASO (Con ASO) (12.5 mg/kg), Foxal ASO1 (12.5 mg/kg), or Foxa1 ASO2 (12.5 mg/kg) for the indicated number of days. Data shown as means ±s.d. (n=6). Statistical significance was determined by two-way ANOVA (* P<0.05; ** P <0.01; *** P <0.0001).
MyC-CaP murine prostate cancer cells were transfected with control ASO (Con ASO) or two Foxal-specific ASOs (Foxal ASO1 and Foxal ASO2).
The MyC-CaP murine prostate cancer cell line, originally derived from prostate tumors of Hi-Myc transgenic mice in FVB genetic background, was purchased from ATCC (Manassas, Va.).
Antibodies used include anti-FOXA1 antibody (# ab23738, Abcam), anti-ERK2 (# sc-1647, Santa Cruz Biotechnology), anti-mouse PD-L1 mAb (clone 10B5), and InVivoMAb mouse IgG1 isotype control (clone MOPC-21) (# BE0083, Bio X Cell).

Data set [4] deals with MyC-CaP prostate tumors. Briefly: Growth of subcutaneous MyC-CaP prostate tumors in FVB male mice. Type of data set: in vivo. Conditions: ASO 12.5 mg/kg intraperitoneal, n=6. How it is done:
as §2
MyC-CaP cells (3×10^6) were injected subcutaneously into the right flank of 6-week-old wild-type intact FVB male mice. When the average tumor volume reached approximately 100 mm^3, mice were randomized into groups subsequently treated with intraperitoneal injection of anti-PD-L1 or non-specific control IgG (10 mg/kg) in combination with control antisense oligonucleotides (12.5 mg/kg), Foxal ASO1 (12.5 mg/kg), or Foxal-ASO2 (12.5 mg/kg).
Thirty six 6-week-old wild-type intact FVB mice were purchased from Jackson Laboratories (Bar Harbor, Me.). Tumor volume was measured by digital caliper and calculated using a formula of length×width×width×0.5.

The target of data set [5] is T1, STAT2 (human, UniProt P52630 1-851).
T1 construct: also called endogenous STAT2
Put plainly: co-IP of ectopically expressed proteins in 293T cells (FIG. 11E). The procedure: (§3) For extraction of nuclear and cytoplasmic proteins from cells, NE-PER Nuclear and Cytoplasmic Extraction Kit (# 78835, Thermo Fisher Scientific) was used according to the manufacturer's instructions. IP buffer (50 mM Tris-HCl pH7.5, 150 mM NaCl, 1% NP40, 0.5% Sodium Deoxycholate) was used to extract whole cell lysate. P rotein A/G agarose (# 20421, Thermo Fisher Scientific) was used for immunoprecipitation of FOXA1 (# ab23738, Abcam) and Flag-tag (dilution 1:1000; # F1804, Sigma-Aldrich). Monoclonal anti-HA agarose (# A2095, Sigma-Aldrich) was used for HA-tag Co-IP. For glutathione-S-transferase (GST) pulldown assay, GST-tagged STAT2 fragment expressed at E. coli was purified by Glutathione Sepharose 4B beads (# 84-239, Genesee Scientific) and incubated with lysate from 293T cells expressing interested proteins, and GST pulldown assays were performed. For protein co-IP, samples eluted in IP butter were incubated with agarose beads and antibodies overnight at 4° C. and washed with 6 times with IP buffer in the following day. Samples were boiled for 10 minutes in 50 μl sample buffer (2% SDS, 10% glycerol, 10% β-mercaptoethanol, bromophenol blue and Tris-HCl, pH 6.8) and subjected to Western blotting.

The target in data set [6] is T2, GST-tagged STAT2 DNA binding domain (a.a. 312-486) (UniProt P52630 312-486).
T2 construct: range 312-486; also called STAT2-DBD; STAT2 DBD; not shown: GST tag
T2 sequence (looked up): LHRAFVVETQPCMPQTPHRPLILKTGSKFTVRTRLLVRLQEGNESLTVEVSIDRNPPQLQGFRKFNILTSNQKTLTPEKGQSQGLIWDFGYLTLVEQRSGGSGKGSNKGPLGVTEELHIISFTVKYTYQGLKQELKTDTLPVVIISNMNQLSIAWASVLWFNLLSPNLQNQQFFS
Put plainly: mutagenesis and GST pull down (FIG. 9E). The procedure:
as §3

T1 sequence (P52630 whole entry): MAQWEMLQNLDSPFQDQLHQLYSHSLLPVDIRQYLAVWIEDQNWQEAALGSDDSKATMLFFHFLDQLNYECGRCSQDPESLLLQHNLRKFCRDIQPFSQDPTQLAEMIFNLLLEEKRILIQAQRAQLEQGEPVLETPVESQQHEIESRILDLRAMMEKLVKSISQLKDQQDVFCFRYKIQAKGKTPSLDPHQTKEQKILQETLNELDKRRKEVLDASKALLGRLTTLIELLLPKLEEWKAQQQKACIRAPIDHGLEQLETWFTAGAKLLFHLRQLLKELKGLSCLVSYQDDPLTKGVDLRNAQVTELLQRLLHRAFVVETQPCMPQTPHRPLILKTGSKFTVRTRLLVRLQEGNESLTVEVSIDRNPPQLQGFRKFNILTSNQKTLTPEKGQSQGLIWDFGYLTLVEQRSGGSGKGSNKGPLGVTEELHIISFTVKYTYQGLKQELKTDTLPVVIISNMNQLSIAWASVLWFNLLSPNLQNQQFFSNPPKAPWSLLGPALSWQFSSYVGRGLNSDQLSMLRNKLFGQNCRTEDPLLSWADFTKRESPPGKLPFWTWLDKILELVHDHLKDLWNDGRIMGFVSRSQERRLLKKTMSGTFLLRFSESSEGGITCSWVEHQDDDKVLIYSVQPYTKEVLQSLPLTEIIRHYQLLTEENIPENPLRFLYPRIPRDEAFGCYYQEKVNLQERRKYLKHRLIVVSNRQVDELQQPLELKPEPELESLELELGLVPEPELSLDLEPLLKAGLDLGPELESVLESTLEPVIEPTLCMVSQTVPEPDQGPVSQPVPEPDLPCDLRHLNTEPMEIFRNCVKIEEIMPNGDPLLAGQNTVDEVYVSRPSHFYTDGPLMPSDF

With Poly(I:C), in data set [1] (TRAMP-C2-FOXA1ΔαH3 tumors, Poly I:C 2.5 mg/kg intratumoral), the tumor growth-inhibitory effect result is on record as “largely diminished”. Moreover, the overall mouse survival result in data set [1] (TRAMP-C2-Vector tumors, Poly I:C 2.5 mg/kg intratumoral) is reported as “prolonged”. In addition, the tumor growth result in data set [1] (TRAMP-C2-Vector tumors, Poly I:C 2.5 mg/kg intratumoral twice per week, five doses) is recorded as “decreased the growth”. The “TILs, especially CD8+ T and NK cells” value in data set [2] (TRAMP-C2-FOXA1ΔαH3 tumors) is on record as “such effect was diminished”. In data set [2] (TRAMP-C2-Vector tumors), the “CD11b+Gr1+ myeloid-derived suppressor cells (MDSCs)” value was “reduced”; the “TILs, especially CD8+ T and NK cells” value is given as “discernibly increased”.
In the case of “Foxa1 ASO1: LNA/PS antisense oligo +G*+G*+T*A*G*C*G*C*C*A*T*A*A*G*G*A*G*+A*+G*+T (SEQ ID NO: 42) (antisense GGTAGCGCCATAAGGAGAGT; sugars from the 5' end l3 d14 l3, all phosphorothioate, methylation of C not given here)”, in data set [3], the Foxa1 protein knockdown entry was “substantially knocked down”. Also, the tumor growth result in data set [4] is listed as “significantly inhibited tumor growth”.
Consider “Foxa1 ASO2: LNA/PS antisense oligo +T*+G*+G*A*T*G*G*C*C*A*T*C*G*+T*+G*+A (SEQ ID NO: 43) (antisense TGGATGGCCATCGTGA; sugars from the 5' end l3 d10 l3, all phosphorothioate, methylation of C not given here)”, for which, in data set [3], the Foxa1 protein knockdown entry is on record as “substantially knocked down”. Besides, the tumor growth entry in data set [4] is recorded as “significantly inhibited tumor growth”.

B1: FOXA1-F266L (other, UniProt P55317 1-472, looked up)
chain: MLGTVKMEGHETSDWNSYYADTQEAYSSVPVSNMNSGLGSMNSMNTYMTMNTMTTSGNMTPASFNMSYANPGLGAGLSPGAVAGMPGGSAGAMNSMTAAGVTAMGTALSPSGMGAMGAQQAASMNGLGPYAAAMNPCMSPMAYAPSNLGRSRAGGGGDAKTFKRSYPHAKPPYSYISLITMAIQQAPSKMLTLSEIYQWIMDLFPYYRQNQQRWQNSIRHSLSFNDCFVKVARSPDKPGKGSYWTLHPDSGNMFENGCYLRRQKRLKCEKQPGAGGGGGSGSGGSGAKGGPESRKDPSGASNPSADSPLHRGVHGKTGQLEGAPAPGPAASPQTLDHSGATATGGASELKTPASSTAPPISSGPGALASVPASHPAHGLAPHESQLHLKGDPHYSFNHPFSINNLMSSSEQQHKLDFKAYEQALQYSPYGSTLPASLPLGSASVTTRSPIEPSALEPAYYQGVYSRPVLNTS
notes: Ectopically expressed in 293T cells
With B1, the binding result in data set [5] is given as “binds”.

B2: FOXA1-H247Q (other, UniProt P55317 1-472, looked up)
chain: B1 chain with H247Q, L266F
notes: as for B1
For the molecule B2, the binding result in data set [5] was “binds”.

B3: FOXA1-R261G (other, UniProt P55317 1-472, looked up)
chain: B1 chain with R261G, L266F
notes: as for B1
For the molecule B3, in data set [5], the binding result was “binds”.

B4: FOXA1 forkhead domain-containing region (FKCR, a.a. 141-294) (other, UniProt P55317 141-294, looked up)
chain: MAYAPSNLGRSRAGGGGDAKTFKRSYPHAKPPYSYISLITMAIQQAPSKMLTLSEIYQWIMDLFPYYRQNQQRWQNSIRHSLSFNDCFVKVARSPDKPGKGSYWTLHPDSGNMFENGCYLRRQKRFKCEKQPGAGGGGGSGSGGSGAKGGPESR
notes: Expressed in 293T cells, and the lysate was used for GST pulldown; also called FOXA1-FKCR
With B4, the binding result in data set [6] is on record as “binds”.
